# Data taken from patent US4575560A, “Insecticidal diaminoguanidine hydrazone compounds” (American Cyanamid Company, priority 1985, dated 1986).
# Counter-ions that a name gives are not always drawn. Like-named read-outs stand apart in the source and are kept apart here.
# Tests used:
# Southern Armyworm = test: Southern armyworm test, third-instar larvae on treated Sieva lima bean leaves; assay type: in vivo, Spodoptera eridania (Cramer)
# Experimental: Test formulations and procedures used for evaluation are as follows:
# A. 100 mg of the test material is weighed, placed in a funnel over a 113 g narrow-mouth bottle, rinsed into the bottle with a 35 mL scoop of acetone, followed by a 35 mL scoop of water and another 35 mL scoop of acetone to yield 1000 ppm in 65% acetone. If the material is not soluble, it is broken up with a glass rod and used as a suspension.
# B. This stock solution ("A") is used to make 300 ppm solutions or suspensions by pipetting 30 mL of "A" into a bottle containing 70 mL of 50% acetone to yield 300 ppm. Further dilutions in 50% acetone are made as required.
# C. Tests requiring 10 ppm acetone solutions: 1 mL of "A" is pipetted into 99 mL of acetone to yield 10 ppm. Additional dilutions are made using 50% acetone as required.
# Southern Armyworm--Spodoptera eridania (Cramer)
# A Sieva lima bean plant with just the primary leaves expanded to 1.91 cm is dipped for three seconds with agitation in the "A" solution of 1000 ppm and set in the hood to dry. Following this, one leaf is placed in a 9 cm petri dish which has a moist filter paper in the bottom and 10 third-instar armyworm larvae about 1 cm long. This dish is covered and held at 80° F., and 50% r.h. After two days, mortality counts and estimates of the amount of feeding are made. Compounds showing partial kill and/or inhibition of feeding are held for an extra day for further observations.
# All compounds showing activity as defined above are retested, using the second leaf on the bean plant, after an interval of seven days from original treatment, as an assay of residual activity.
# [1] = test system: Tobacco Budworm 3rd Instar; test: Tobacco budworm secondary test, third-instar larvae on treated cotton cotyledons; assay type: in vivo, Heliothis virescens (Fabricus)
# Experimental: Tobacco Budworm--Heliothis virescens (Fabricus)
# Three cotton plants with just expanded cotyledons are dipped in 1000 ppm solution and placed in the hood to dry. When dry, each cotyledon is cut in half, and 10 are each placed in a 28 g plastic medicine cup containing a 1.25 cm dental wick saturated with water, and one third-instar budworm larva is added. The cup is capped and held for three days at 80° F., 50% relative humidity, after which mortality counts are made.
SMILES,"Mortality Rating Southern Armyworm (Southern Armyworm; 10 ppm, third-instar larvae)","Mortality Rating Southern Armyworm (Southern Armyworm; 100 ppm, third-instar larvae)","Mortality Rating Southern Armyworm (Southern Armyworm; 1000 ppm, third-instar larvae)",Mortality Rating Tobacco Budworm 3rd Instar ([1]; 100 ppm),reduced feeding (R) Tobacco Budworm 3rd Instar ([1]; 100 ppm),Mortality Rating Tobacco Budworm 3rd Instar ([1]; 1000 ppm),reduced feeding (R) Tobacco Budworm 3rd Instar ([1]; 1000 ppm),Mortality Rating Tobacco Budworm 3rd Instar ([1]; 10 ppm),reduced feeding (R) Tobacco Budworm 3rd Instar ([1]; 10 ppm),reduced feeding (R) Southern Armyworm (Southern Armyworm; 100 ppm),reduced feeding (R) Southern Armyworm (Southern Armyworm; 1000 ppm),LC50 (Southern Armyworm; Spodoptera eridania; read-out: LC50 Southern Armyworm) [µg/mL],"LC50 (Southern Armyworm; Spodoptera eridania, read-out: LC50 Southern Armyworm) [µg/mL]"
CC(C)OC(=O)N(N=Cc1ccc(OC(F)(F)F)cc1)C(=N)NN=Cc1ccc(OC(F)(F)F)cc1 [CF3 O / CF3 O / -i-C3 H7],7 (76-85%),9 (100%),9 (100%),5 (56-65%),R,–,–,–,–,–,–,–,–
CCN(CC)C(=O)N(N=Cc1ccc(OC(F)(F)F)cc1)C(=N)NN=Cc1ccc(OC(F)(F)F)cc1 [CF3 O / CF3 O / C2 H5 / C2 H5],0 (No effect),9 (100%),9 (100%),–,–,8 (86-99%),–,–,–,–,–,–,–
CCOC(=O)N(N=Cc1ccc(OC(F)(F)F)cc1)C(=N)NN=Cc1ccc(OC(F)(F)F)cc1 [CF3 O / CF3 O / C2 H5],6 (66-75%),9 (100%),9 (100%),2 (26-35%),–,7 (76-85%),R,–,–,–,–,–,–
C=CCOC(=O)N(N=Cc1ccc(OC(F)(F)F)cc1)C(=N)NN=Cc1ccc(OC(F)(F)F)cc1 [CF3 O / CF3 O / CH2CHCH2],6 (66-75%),8 (86-99%),9 (100%),–,–,0 (No effect),R,–,–,–,–,–,–
N=C(NN=Cc1ccc(OC(F)(F)F)cc1)N(N=Cc1ccc(OC(F)(F)F)cc1)C(=O)OCC(Cl)(Cl)Cl [CF3 O / CF3 O / Cl3 CCH2],9 (100%),9 (100%),9 (100%),1 (11-25%),R,0 (No effect),R,–,–,–,–,–,–
N=C(NN=Cc1ccc(OC(F)(F)F)cc1)N(N=Cc1ccc(OC(F)(F)F)cc1)C(=O)OCCCl [CF3 O / CF3 O / ClCH2 CH2],5 (56-65%),9 (100%),9 (100%),0 (No effect),R,8 (86-99%),R,0 (No effect),R,–,–,–,–
CCC(C)OC(=O)N(N=Cc1ccc(OC(F)(F)F)cc1)C(=N)NN=Cc1ccc(OC(F)(F)F)cc1 (stereo not shown) [CF3 O / CF3 O / drawing 55],0 (No effect),9 (100%),9 (100%),0 (No effect),R,8 (86-99%),–,–,–,–,–,–,–
CCC(C)OC(=O)N(N=Cc1ccc(Cl)cc1)C(=N)NN=Cc1ccc(Cl)cc1 (stereo not shown) [Cl / Cl / drawing 56],–,0 (No effect),9 (100%),0 (No effect),–,0 (No effect),R,–,–,–,–,–,–
N=C(NN=Cc1ccc(Cl)cc1)NN=Cc1ccc(OC(F)(F)C(F)F)cc1 [Cl / HCF2 CF2 O / B],0 (No effect),9 (100%),9 (100%),0 (No effect),–,0 (No effect),R,–,–,–,–,–,–
N=C(NN=Cc1ccc(Cl)cc1)NN=Cc1ccc(Cl)cc1 [Cl / HCl],0 (No effect),0 (No effect),–,–,–,0 (No effect),–,–,–,R,R,–,–
N=C(NN=Cc1ccc(Cl)cc1)NN=Cc1ccc(Cl)cc1 [Cl / HNO3],–,0 (No effect),9 (100%),–,–,0 (No effect),–,–,–,–,–,–,–
CN(C)C(=O)N(N=Cc1ccc(F)cc1)C(=N)NN=Cc1ccc(F)cc1 [F / F / CH3 / CH3],–,0 (No effect),8 (86-99%),–,–,0 (No effect),–,–,–,–,–,–,–
CC(C)OC(=O)N(N=Cc1ccc(OC(F)(F)C(Cl)Cl)cc1)C(=N)NN=Cc1ccc(OC(F)(F)C(Cl)Cl)cc1 [HCCL2 CF2 O / HCCl2 CF2 O / -i-C3 H7],–,0 (No effect),7 (76-85%),0 (No effect),R,0 (No effect),R,–,–,–,–,–,–
N=C(NN=Cc1ccc(OC(F)(F)C(Cl)Cl)cc1)NN=Cc1ccc(OC(F)(F)C(Cl)Cl)cc1 [HCCL2 CF2 O / S],7 (76-85%),9 (100%),9 (100%),0 (No effect),R,5 (56-65%),–,–,–,–,–,–,–
N=C(NN=Cc1ccc(OC(F)(F)C(Cl)Cl)cc1)NN=Cc1ccc(OC(F)(F)C(Cl)Cl)cc1 [HCCl2 CF2 O / B],0 (No effect),0 (No effect),9 (100%),–,–,4 (46-55%),R,–,–,–,–,–,–
N=C(NN=Cc1ccc(OC(F)(F)C(F)F)cc1)N(N=Cc1ccc(OC(F)(F)C(F)F)cc1)C(=O)N1CCCC1 [HCF2 CF2 O / HCF2 CF2 O / (CH2)4],–,9 (100%),9 (100%),0 (No effect),–,3 (36-45%),–,–,–,–,–,–,–
CC(C)OC(=O)N(N=Cc1ccc(OC(F)(F)C(F)F)cc1)C(=N)NN=Cc1ccc(OC(F)(F)C(F)F)cc1 [HCF2 CF2 O / HCF2 CF2 O / -i-C3 H7],0 (No effect),9 (100%),9 (100%),0 (No effect),–,5 (56-65%),–,–,–,–,–,–,–
CCN(CC)C(=O)N(N=Cc1ccc(OC(F)(F)C(F)F)cc1)C(=N)NN=Cc1ccc(OC(F)(F)C(F)F)cc1 [HCF2 CF2 O / HCF2 CF2 O / C2 H5 / C2 H5],1 (11-25%),9 (100%),9 (100%),0 (No effect),–,5 (56-65%),–,0 (No effect),–,–,–,–,–
CCNC(=O)N(N=Cc1ccc(OC(F)(F)C(F)F)cc1)C(=N)NN=Cc1ccc(OC(F)(F)C(F)F)cc1 [HCF2 CF2 O / HCF2 CF2 O / C2 H5 / H],0 (No effect),9 (100%),9 (100%),–,–,4 (46-55%),–,–,–,–,–,34,–
CNC(=O)N(N=Cc1ccc(OC(F)(F)C(F)F)cc1)C(=N)NN=Cc1ccc(OC(F)(F)C(F)F)cc1 [HCF2 CF2 O / HCF2 CF2 O / CH3 / H],0 (No effect),9 (100%),9 (100%),–,–,4 (46-55%),–,–,–,–,–,–,–
N=C(NN=Cc1ccc(OC(F)(F)C(F)F)cc1)N(N=Cc1ccc(OC(F)(F)C(F)F)cc1)C(=O)NCCCl [HCF2 CF2 O / HCF2 CF2 O / ClCH2 CH2 / H],0 (No effect),8 (86-99%),9 (100%),0 (No effect),–,6 (66-75%),–,0 (No effect),–,–,–,–,21
N=C(NN=Cc1ccc(SC(F)(F)C(F)F)cc1)NN=Cc1ccc(SC(F)(F)C(F)F)cc1 [HCF2 CF2 S / B],–,9 (100%),9 (100%),–,–,0 (No effect),R,–,–,–,–,–,–
CC(C)OC(=O)N(N=Cc1ccc(SC(F)(F)C(F)F)cc1)C(=N)NN=Cc1ccc(SC(F)(F)C(F)F)cc1 [HCF2 CF2 S / HCF2 CF2 S / -i-C3 H7],–,9 (100%),9 (100%),0 (No effect),–,5 (56-65%),R,–,–,–,–,–,–
